Patent publication US9695155B2, “Herbicidal substituted pyrimidinyloxy benzene compounds” (E. I. DU PONT DE NEMOURS AND COMPANY, priority 2013, dated 2017)

Columns and labels:
[1] = tested on: pigweed; test: Test A preemergence; assay type: in vivo, Amaranthus retroflexus; details: 1000 g ai/ha, 0 to 100 scale, 0 no effect, 100 complete control, approx. 10 days
In short: (§1)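 Compounds in non-phytotoxic solvent with surfactant applied as soil spray preemergence, or postemergence to plants 2-10 cm at one- to two-leaf stage, in loam/sand. After approximately 10 days in greenhouse, injury rated visually versus untreated controls, 0 (no effect) to 100 (complete control).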

[2] = tested on: kochia; test: Test A preemergence; assay type: in vivo, Kochia scoparia; details: 1000 g ai/ha, 0 to 100 scale, 0 no effect, 100 complete control, approx. 10 days
In short: as §1

[3] = tested on: barnyardgrass; test: Test A preemergence; assay type: in vivo, Echinochloa crus-galli; details: 1000 g ai/ha, 0 to 100 scale, 0 no effect, 100 complete control, approx. 10 days
In short: as §1

[4] = tested on: kochia; test: Test A postemergence; assay type: in vivo, Kochia scoparia; details: 1000 g ai/ha, 0 to 100 scale, 0 no effect, 100 complete control
In short: as §1

[5] = tested on: wheat; test: Test A postemergence; assay type: in vivo, Triticum aestivum; details: 1000 g ai/ha, 0 to 100 scale, 0 no effect, 100 complete control
In short: as §1

[6] = tested on: Heteranthera limosa; test: Test B flooded paddy test; assay type: in vivo; details: Flood, 250 g ai/ha; 0 to 100 scale where 0 is no effect and 100 is complete control
In short: (§2)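 2-leaf stage plants; pots flooded to 3 cm, compound added to paddy water, depth maintained. Greenhouse 13–15 d. Visual rating vs untreated controls, 0 (no effect) to 100 (complete control); dash = no result.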

[7] = tested on: ragweed; test: Test A preemergence; assay type: in vivo, Ambrosia elatior; details: 1000 g ai/ha, 0 to 100 scale, 0 no effect, 100 complete control, approx. 10 days
In short: as §1

[8] = tested on: sedge, umbrella; test: Test B flooded paddy test; assay type: in vivo, Cyperus difformis; details: Flood, 250 g ai/ha; 0 to 100 scale where 0 is no effect and 100 is complete control
In short: as §2

[9] = tested on: Italian ryegrass; test: Test A postemergence; assay type: in vivo, Lolium multiflorum; details: 1000 g ai/ha, 0 to 100 scale, 0 no effect, 100 complete control
In short: as §1

[10] = tested on: Italian ryegrass; test: Test A preemergence; assay type: in vivo, Lolium multiflorum; details: 1000 g ai/ha, 0 to 100 scale, 0 no effect, 100 complete control, approx. 10 days
In short: as §1

[11] = tested on: giant foxtail; test: Test A preemergence; assay type: in vivo, Setaria faberii; details: 1000 g ai/ha, 0 to 100 scale, 0 no effect, 100 complete control, approx. 10 days
In short: as §1

[12] = tested on: corn; test: Test A postemergence; assay type: in vivo, Zea mays; details: 1000 g ai/ha, 0 to 100 scale, 0 no effect, 100 complete control
In short: as §1

[13] = tested on: rice; test: Test B flooded paddy test; assay type: in vivo, Oryza sativa; details: Flood, 250 g ai/ha; 0 to 100 scale where 0 is no effect and 100 is complete control
In short: as §2

[14] = tested on: blackgrass; test: Test A postemergence; assay type: in vivo, Alopecurus myosuroides; details: 1000 g ai/ha, 0 to 100 scale, 0 no effect, 100 complete control
In short: as §1

[15] = tested on: giant foxtail; test: Test A postemergence; assay type: in vivo, Setaria faberii; details: 1000 g ai/ha, 0 to 100 scale, 0 no effect, 100 complete control
In short: as §1

[16] = tested on: barnyardgrass; test: Test B flooded paddy test; assay type: in vivo, Echinochloa crus-galli; details: Flood, 250 g ai/ha; 0 to 100 scale where 0 is no effect and 100 is complete control
In short: as §2

[17] = tested on: ragweed; test: Test A postemergence; assay type: in vivo, Ambrosia elatior; details: 1000 g ai/ha, 0 to 100 scale, 0 no effect, 100 complete control
In short: as §1

[18] = tested on: pigweed; test: Test A postemergence; assay type: in vivo, Amaranthus retroflexus; details: 1000 g ai/ha, 0 to 100 scale, 0 no effect, 100 complete control
In short: as §1

[19] = tested on: barnyardgrass; test: Test A postemergence; assay type: in vivo, Echinochloa crus-galli; details: 1000 g ai/ha, 0 to 100 scale, 0 no effect, 100 complete control
In short: as §1

[20] = tested on: galium; test: Test A postemergence; assay type: in vivo, Galium aparine; details: 1000 g ai/ha, 0 to 100 scale, 0 no effect, 100 complete control
In short: as §1

Compound	Pigweed plant response rating [1]	Kochia plant response rating [2]	Barnyardgrass plant response rating [3]	Plant response rating, Kochia [4]	Plant response rating, Wheat [5]	Plant response rating, Ducksalad [6]	Ragweed plant response rating [7]	Plant response rating, Sedge, Umbrella [8]	Plant response rating, Ryegrass, Italian [9]	Ryegrass, Italian plant response rating [10]	Foxtail, Giant plant response rating [11]	Plant response rating, Corn [12]	Plant response rating, Rice [13]	Plant response rating, Blackgrass [14]	Plant response rating, Foxtail, Giant [15]	Plant response rating, Barnyardgrass [16]	Plant response rating, Ragweed [17]	Plant response rating, Pigweed [18]	Plant response rating, Barnyardgrass [19]	Plant response rating, Galium [20]
NS(=O)(=O)c1cnn(-c2ccccc2Oc2ncc(Cl)cn2)c1 [Compound 282]	100	100	90	90	0	0	100	0	80	50	100	50	0	100	60	0	100	80	90	30
Cc1noc(-c2cccc(Oc3ncc(Cl)cn3)c2-n2cc(C(F)(F)F)cn2)n1 [Compound 299]	100	100	90	70	20	20	70	70	70	60	100	70	15	80	90	20	30	100	80	80
